{"source": "paper PMC12645191", "about": "“Dicarboxylate and dicarboxylic acid appended supramolecular self-associating amphiphiles as antimicrobial agents against high priority bacterial pathogens” (Organic & Biomolecular Chemistry, 2025)", "key": {"[1]": {"tested_on": "all Gram-positive bacteria tested", "assay": "inhibition of bacterial growth, span over the Gram-positive panel", "format": "cell-based, S. aureus, E. faecalis, E. faecium", "conditions": "SSA 5.0 mM, 20 hours; read-out: inhibition against all Gram-positive bacteria tested (span)", "description": "With the self-associative properties of 1–10 established, the antimicrobial activity of these SSAs were determined against a panel of clinically relevant, high-priority pathogens including: P. aeruginosa PAO1; Klebsiella pneumonia (K. pneumoniae) M6; E. coli NCTC 12923; Acinetobacter baumannii (A. baumannii) ATCC 17978; S. aureus ATCC 9144; Enterococcus faecalis (E. faecalis) NCTC 775; and Enterococcus faecium (E. faecium) NCTC 12204. […] However, it should be noted that the SSA stock solution was prepared in a H2O 5% EtOH solution, to ensure that the SSA aggregates formed were in line with those characterised within the scope of the SSA self-association studies.\nSection 3: Biological methods\nThese methods were taken directly from UK Health and Security Office (UKHSA) standard […]\nPreparation of Luria Broth media (LB): Yeast extract (5.0 g), tryptone (10.0 g) and sodium chloride (10.0 g) were dissolved in dH₂O (1.0 L) then divided into bottles and autoclaved.\nPreparation of Luria Broth (LB) agar plates: Agar (6.0 g) was added to LB (400 mL) and autoclaved. […]\nPreparation of 96 well microplate for MIC50: The 1:100 cell suspension (150 µL) was dispensed into individual wells under sterile conditions. […] The plates were sealed using parafilm, then incubated at 37 °C in a microplate reader for 20 hours. […]"}, "[2]": {"tested_on": "Caco-2 cell line", "assay": "bi-directional permeability in Caco-2 cell line", "format": "in vitro ADME, human", "description": "Metabolic stability was assessed in mouse and rat liver microsomes. Microsomes are subcellular fractions of hepatocytes and contain CYP450s, the predominant enzymes involved in first-pass metabolism.[66] […] A plasma protein binding assay was performed to assess the extent of compound binding to plasma proteins. This is key as only unbound compound is free to distribute and exert a pharmacological effect. […] To assess the potential for this sub-class of SSAs to be developed as drugs for oral administration, Caco-2 permeability assays were also performed, as a cellular model indicative of human intestinal permeability. […]\nSample analysis was by electrospray ionisation. […]\nBi-directional Permeability in Caco-2 Cell Line:\nThe bi-directional permeability in Caco-2 cell lines was determined by seeding cells onto an HTS Transwell plate. Cells were cultivated for 14-18 days in a cell culture incubator at 37 °C, 5 % CO2, 95 % relative humidity. Cell culture medium was replaced every other day. To assess monolayer integrity the transepithelial electrical resistance (TEER) across the monolayer was measured using Millicell Epithelial volt-ohm meter prior to assay and Lucifer yellow (LY) fluorescence measurement post-assay.\nTest and control compounds were prepared in DMSO and diluted in Hank’s Balanced Saline […]\nSolution (HBSS, pH 7.4) to a final concentration of 5 or 10 µM. Compound was added to the […]\ndonor compartment of the transwell plate for both apical to basolateral (A>B) and basolateral […]\nto apical (B>A) measurements, with blank HBSS being added to the receiver compartment.\nThe transwell plate was then incubated at 37 °C, 5 % CO2 for 2 hours."}, "[3]": {"conditions": "Caco-2, 5 or 10 µM, HBSS pH 7.4, 2 hours"}}}
{"smiles": "O=C(O)CC[C@H](NC(=O)Nc1ccc(C(F)(F)F)cc1)C(=O)O", "note": "[SSA 2]", "values": [{"measurement": "inhibition at 5000 µM", "setting": "[1]", "result": "22 to 80", "unit": "%"}, {"measurement": "Efflux Ratio", "setting": "[2]; Caco-2", "result": 1.71}, {"measurement": "Recovery (%) AP-BL", "setting": "[2]; Caco-2", "result": 99.71, "unit": "%"}, {"measurement": "Recovery (%) BL-AP", "setting": "[2]; Caco-2", "result": 80.26, "unit": "%"}, {"measurement": "Papp (A-B)", "setting": "[2]; [3]", "result": "0.14 10-6, cm/s"}, {"measurement": "Papp (B-A)", "setting": "[2]; [3]", "result": "0.24 10-6, cm/s"}]}
